For the assay, the target named is BTK (Homo sapiens (Human), UniProt Q06187). The assay is described as follows: BTK enzymatic activity assay (Caliper-based kinase assay). The class given is biochemical. The following applies: human recombinant BTK 0.5 nM, ATP 16 μM, 3 h room temperature. The procedure: A Caliper-based kinase assay (Caliper Life Sciences, Hopkinton, Mass.) was used to measure inhibition of BTK kinase activity of a compound of the present disclosure. […] The reaction was then terminated with EDTA, final concentration 20 mM and the phosphorylated reaction product was quantified on a Caliper Desktop Profiler (Caliper LabChip 3000). […] This value is presented as the IC50.
BTK, sequence (Q06187 whole entry): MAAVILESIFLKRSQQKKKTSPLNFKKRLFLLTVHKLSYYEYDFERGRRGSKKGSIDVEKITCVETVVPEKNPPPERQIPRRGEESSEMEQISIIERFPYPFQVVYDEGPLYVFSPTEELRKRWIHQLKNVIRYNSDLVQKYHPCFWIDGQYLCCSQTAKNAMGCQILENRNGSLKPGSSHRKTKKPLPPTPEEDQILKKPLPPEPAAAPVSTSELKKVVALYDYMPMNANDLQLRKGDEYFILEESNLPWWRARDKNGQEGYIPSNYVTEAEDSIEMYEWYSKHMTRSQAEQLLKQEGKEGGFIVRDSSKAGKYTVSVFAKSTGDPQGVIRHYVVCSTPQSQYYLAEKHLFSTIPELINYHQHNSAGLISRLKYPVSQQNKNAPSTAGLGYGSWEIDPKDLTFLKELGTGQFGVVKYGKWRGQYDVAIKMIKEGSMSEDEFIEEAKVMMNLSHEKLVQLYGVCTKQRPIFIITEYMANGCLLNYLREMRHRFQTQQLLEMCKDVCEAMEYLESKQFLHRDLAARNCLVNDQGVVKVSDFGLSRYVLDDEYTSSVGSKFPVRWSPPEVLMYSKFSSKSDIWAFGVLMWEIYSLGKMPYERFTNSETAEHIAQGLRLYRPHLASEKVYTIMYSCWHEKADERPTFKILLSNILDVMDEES
As to `CC#CC(=O)N1CCC[C@H]1Cn1c(=O)n(-c2ccc(Oc3ccccc3)cc2)c2c(N)nccc21` [Compound 23, (S)-4-amino-1-((1-(but-2-ynoyl)pyrrolidin-2-yl)methyl)-3-(4-phenoxyphenyl)-1H-imidazo[4,5-c]pyridin-2(3H)-one], the IC50 was 25.9 nM.
The same measure for `CC(C)(C=C(C#N)C(=O)N1CCC[C@@H](n2c(=O)n(-c3ccc(Oc4ccccc4)cc3F)c3c(N)nccc32)C1)N1CCN(C2COC2)CC1` [Compound 27, (R)-2-(3-(4-amino-3-(2-fluoro-4-phenoxyphenyl)-2-oxo-2,3-dihydro-1H-imidazo[4,5-c]pyridin-1-yl)piperidine-1-carbonyl)-4-methyl-4-(4-(oxetan-3-yl)piperazin-1-yl)pent-2-enenitrile]: 4.9 nM; for `CC(C)(N)C=C(C#N)C(=O)N1CCC[C@@H](n2c(=O)n(-c3ccc(Oc4ccccc4)cc3)c3c(N)nccc32)C1` [Compound 57, (R)-4-amino-2-(3-(4-amino-2-oxo-3-(4-phenoxyphenyl)-2,3-dihydro-1H-imidazo[4,5-c]pyridin-1-yl)piperidine-1-carbonyl)-4-methylpent-2-enenitrile]: 61.4 nM.
Turning to `C=C(F)C(=O)N1CCC[C@@H](n2c(=O)n(-c3ccc(Oc4ccccc4)cc3)c3c(N)nccc32)C1` [Compound 67, (R)-4-amino-1-(1-(2-fluoroacryloyl)piperidin-3-yl)-3-(4-phenoxyphenyl)-1H-imidazo[4,5-c]pyridin-2(3H)-one], the IC50 came to 1.2 nM.
The same measure for `N#CC(=CC1CC1(F)F)C(=O)N1CCC[C@@H](n2c(=O)n(-c3ccc(Oc4ccccc4)cc3)c3c(N)nccc32)C1` (stereo partly drawn) [Compound 52, (R)-2-(3-(4-amino-2-oxo-3-(4-phenoxyphenyl)-2,3-dihydro-1H-imidazo[4,5-c]pyridin-1-yl)piperidine-1-carbonyl)-3-(2,2-difluorocyclopropyl)acrylonitrile]: 12 nM.
The result for `CN1CCN(c2ccnc(C(C)(C)C=C(C#N)C(=O)N3CCC[C@@H](n4c(=O)n(-c5ccc(Oc6ccccc6)cc5)c5c(N)nccc54)C3)n2)CC1` [Compound 56, (R)-2-(3-(4-amino-2-oxo-3-(4-phenoxyphenyl)-2,3-dihydro-1H-imidazo[4,5-c]pyridin-1-yl)piperidine-1-carbonyl)-4-methyl-4-(4-(4-methylpiperazin-1-yl)pyrimidin-2-yl)pent-2-enenitrile] reads 7.8 nM.
On to `CC(C)(C=C(C#N)C(=O)N1CCC[C@@H](n2c(=O)n(-c3ccc(Oc4ccccc4)cc3)c3c(N)ncnc32)C1)N1CCN(C2COC2)CC1` [Compound 31, (R)-2-(3-(6-amino-8-oxo-7-(4-phenoxyphenyl)-7H-purin-9(8H)-yl)piperidine-1-carbonyl)-4-methyl-4-(4-(oxetan-3-yl)piperazin-1-yl)pent-2-enenitrile], for which the IC50 amounted to 3.7 nM.
The same measure for “(R)-2-(3-(4-amino-2-oxo-3-(4-phenoxyphenyl)-2,3-dihydro-1H-imidazo[4,5-c]pyridin-1-yl)piperidine-1-carbonyl)-3-(4-methyl-1-(oxetan-3-yl)piperidin-4-yl)acrylonitrile [Compound 42]”: 4.1 nM; for `CN1CCN(C(=O)C(C)(C)C=C(C#N)C(=O)N2CCC[C@@H](n3c(=O)n(-c4ccc(Oc5ccccc5)cc4)c4c(N)nccc43)C2)CC1` [Compound 49, (R)-2-(3-(4-amino-2-oxo-3-(4-phenoxyphenyl)-2,3-dihydro-1H-imidazo[4,5-c]pyridin-1-yl)piperidine-1-carbonyl)-4,4-dimethyl-5-(4-methylpiperazin-1-yl)-5-oxopent-2-enenitrile]: 12.8 nM.
The result for `CC(C)(C=C(C#N)C(=O)N1CCC[C@@H](n2c(=O)n(-c3ccc(Oc4ccccc4)c(F)c3)c3c(N)nccc32)C1)N1CCN(C2COC2)CC1` [Compound 26, (R)-2-(3-(4-amino-3-(3-fluoro-4-phenoxyphenyl)-2-oxo-2,3-dihydro-1H-imidazo[4,5-c]pyridin-1-yl)piperidine-1-carbonyl)-4-methyl-4-(4-(oxetan-3-yl)piperazin-1-yl)pent-2-enenitrile] reads 3.5 nM; that for `CCC1(C=C(C#N)C(=O)N2CCC[C@@H](n3c(=O)n(-c4ccc(Oc5ccccc5)cc4)c4c(N)nccc43)C2)CCOCC1` [Compound 65, (R)-2-(3-(4-amino-2-oxo-3-(4-phenoxyphenyl)-2,3-dihydro-1H-imidazo[4,5-c]pyridin-1-yl)piperidine-1-carbonyl)-3-(4-ethyltetrahydro-2H-pyran-4-yl)acrylonitrile], 2.4 nM; that for `CC(C)(C=C(C#N)C(=O)N1CCC[C@@H](n2c(=O)n(-c3ccc(Oc4ccccc4)cc3)c3c(N)nccc32)C1)N1CCN(C2(C)COC2)CC1` [Compound 30, (R)-2-(3-(4-amino-2-oxo-3-(4-phenoxyphenyl)-2,3-dihydro-1H-imidazo[4,5-c]pyridin-1-yl)piperidine-1-carbonyl)-4-methyl-4-(4-(3-methyloxetan-3-yl)piperazin-1-yl)pent-2-enenitrile], 1.5 nM.
The same measure for `CC(C)(C=C(C#N)C(=O)N1CCC[C@@H](n2c(=O)n(-c3ccc(Oc4ccccc4)cc3)c3c(N)nccc32)C1)c1ccccn1` [Compound 55, (R)-2-(3-(4-amino-2-oxo-3-(4-phenoxyphenyl)-2,3-dihydro-1H-imidazo[4,5-c]pyridin-1-yl)piperidine-1-carbonyl)-4-methyl-4-(pyridin-2-yl)pent-2-enenitrile]: 3.1 nM; for `C=CC(=O)N1CCC[C@H]1Cn1c(=O)n(-c2ccc(Oc3ccccc3)cc2)c2c(N)nccc21` [Compound 22, (S)-1-((1-acryloylpyrrolidin-2-yl)methyl)-4-amino-3-(4-phenoxyphenyl)-1H-imidazo[4,5-c]pyridin-2(3H)-one]: 4.8 nM; for `CN1CCN(c2cccc(C(C)(C)C=C(C#N)C(=O)N3CCC[C@@H](n4c(=O)n(-c5ccc(Oc6ccccc6)cc5)c5c(N)nccc54)C3)n2)CC1` [Compound 54, (R)-2-(3-(4-amino-2-oxo-3-(4-phenoxyphenyl)-2,3-dihydro-1H-imidazo[4,5-c]pyridin-1-yl)piperidine-1-carbonyl)-4-methyl-4-(6-(4-methylpiperazin-1-yl)pyridin-2-yl)pent-2-enenitrile]: 17.8 nM.
On to `CC(C)(C=C(C#N)C(=O)N1CCC[C@@H](n2c(=O)n(-c3ccc(Oc4ccccc4)cc3)c3c(N)nccc32)C1)N1CCC(F)(F)C1` [Compound 58, (R)-2-(3-(4-amino-2-oxo-3-(4-phenoxyphenyl)-2,3-dihydro-1H-imidazo[4,5-c]pyridin-1-yl)piperidine-1-carbonyl)-4-(3,3-difluoropyrrolidin-1-yl)-4-methylpent-2-enenitrile], for which the IC50 worked out at 4.2 nM.
The result for `N#CC(=CC1CC[S+]([O-])CC1)C(=O)N1CCC[C@@H](n2c(=O)n(-c3ccc(Oc4ccccc4)cc3)c3c(N)nccc32)C1` (stereo partly drawn) [Compound 39, (R)-2-(3-(4-amino-2-oxo-3-(4-phenoxyphenyl)-2,3-dihydro-1H-imidazo[4,5-c]pyridin-1-yl)piperidine-1-carbonyl)-3-(1-oxidotetrahydro-2H-thiopyran-4-yl)acrylonitrile] reads 5.3 nM.
The result for `COC[C@@H]1CCCN1C(C)(C)C=C(C#N)C(=O)N1CCC[C@@H](n2c(=O)n(-c3ccc(Oc4ccccc4)cc3)c3c(N)nccc32)C1` [Compound 63, 2-((R)-3-(4-amino-2-oxo-3-(4-phenoxyphenyl)-2,3-dihydro-1H-imidazo[4,5-c]pyridin-1-yl)piperidine-1-carbonyl)-4-((S)-2-(methoxymethyl)pyrrolidin-1-yl)-4-methylpent-2-enenitrile] reads 1.4 nM; that for `CN(C)C(=O)C(C)(C)C=C(C#N)C(=O)N1CCC[C@@H](n2c(=O)n(-c3ccc(Oc4ccccc4)cc3)c3c(N)nccc32)C1` [Compound 50, (R)-5-(3-(4-amino-2-oxo-3-(4-phenoxyphenyl)-2,3-dihydro-1H-imidazo[4,5-c]pyridin-1-yl)piperidin-1-yl)-4-cyano-N,N,2,2-tetramethyl-5-oxopent-3-enamide], 8.3 nM; that for `CC(C)(C=C(C#N)C(=O)N1CCC[C@@H](n2c(=O)n(-c3ccc(Oc4ccccc4)cc3)c3c(N)nccc32)C1)N1CCn2cnnc2C1` [Compound 29, (R)-2-(3-(4-amino-2-oxo-3-(4-phenoxyphenyl)-2,3-dihydro-1H-imidazo[4,5-c]pyridin-1-yl)piperidine-1-carbonyl)-4-(5,6-dihydro-[1,2,4]triazolo[4,3-a]pyrazin-7(8H)-yl)-4-methylpent-2-enenitrile], 1.8 nM.
For `N#CC(=CC(CCO)CCO)C(=O)N1CCC[C@@H](n2c(=O)n(-c3ccc(Oc4ccccc4)cc3)c3c(N)nccc32)C1` [Compound 11, (R)-2-(3-(4-amino-2-oxo-3-(4-phenoxyphenyl)-2,3-dihydro-1H-imidazo[4,5-c]pyridin-1-yl)piperidine-1-carbonyl)-6-hydroxy-4-(2-hydroxyethyl)hex-2-enenitrile], the IC50 came out at 78.6 nM.
With `CC(C)(C=C(C#N)C(=O)N1CCC[C@@H](n2c(=O)n(-c3ccc(Oc4c(F)cccc4F)cc3)c3c(N)nccc32)C1)N1CCN(C2COC2)CC1` [Compound 24, (R)-2-(3-(4-amino-3-(4-(2,6-difluorophenoxy)phenyl)-2-oxo-2,3-dihydro-1H-imidazo[4,5-c]pyridin-1-yl)piperidine-1-carbonyl)-4-methyl-4-(4-(oxetan-3-yl)piperazin-1-yl)pent-2-enenitrile], the IC50 was found to be 4.7 nM.
For `CC(C)(C=C(C#N)C(=O)N1CCC[C@@H](n2c(=O)n(-c3ccc(Oc4ccccc4)cc3)c3c(N)nccc32)C1)N1CCNC(=O)C1` [Compound 21, (R)-2-(3-(4-amino-2-oxo-3-(4-phenoxyphenyl)-2,3-dihydro-1H-imidazo[4,5-c]pyridin-1-yl)piperidine-1-carbonyl)-4-methyl-4-(3-oxopiperazin-1-yl)pent-2-enenitrile], the IC50 amounted to 4.6 nM.

By IC50 is commonly meant the concentration at which inhibition is half-maximal.

Values taken from patent US9688676B2, “Tyrosine kinase inhibitors” (PRINCIPIA BIOPHARMA INC., priority 2015, dated 2017).
